Reference: US20240423907A1, “Improved Nasal Administration of Pharmaceutical Formulations” (Cyrano Therapeutics, Inc., priority 2022, published 2024)

Legend:
[1] = system: subject diagnosed with a sinus infection; test: Treatment of sinusitis in a subject; assay type: in vivo; conditions: nasal spray device described herein, effective dose 2× daily in each naris
Excerpt: A subject is admitted to a clinic for nasal congestion, nasal inflammation, facial pain (e.g., pain around the eyes, cheeks, nose and forehead). The subject is diagnosed with a sinus infection. The subject is prescribed a beclomethasone dipropionate composition in a nasal spray device described herein. The subject administers the nasal spray in an effective dose 2× daily in each naris. The nasal spray is characterized by a spray containing a D50 of about 15 μm to about 24 μm, a D90 of from about 30 μm to about 50 μm and where less than about 3% of the droplets in the plume of a spray have a size of less than about 10 μm.

[2] = system: subject diagnosed with allergic rhinitis; test: Treatment of allergic rhinitis in a subject; assay type: in vivo; conditions: nasal spray device described herein, effective dose 1× daily in each naris
Excerpt: A subject is admitted to a clinic for nasal congestion, sneezing, itchy eyes, and watery eyes. The subject is diagnosed with allergic rhinitis. The subject is prescribed a fluticasone propionate composition in a nasal spray device described herein. The subject administers the nasal spray in an effective dose 1× daily in each naris. The nasal spray is characterized by a spray containing a D50 of about 15 μm to about 24 μm, a D90 of from about 30 μm to about 50 μm, and where less than about 3% of the droplets in the plume of a spray have a size of less than about 10 μm.

Row | Structure (SMILES) | symptoms of the sinus infection (pain, nasal inflammation and congestion) after administration [1] | symptoms of allergic rhinitis (sneezing, itchy eyes, nasal congestion, watery eyes) after administration [2]
1 | CCC(=O)OCC(=O)[C@@]1(OC(=O)CC)[C@@H](C)C[C@H]2[C@@H]3CCC4=CC(=O)C=C[C@]4(C)[C@@]3(Cl)[C@@H](O)C[C@@]21C [beclomethasone dipropionate] | reduced symptoms | 
2 | CCC(=O)O[C@]1(C(=O)SCF)[C@H](C)C[C@H]2[C@@H]3C[C@H](F)C4=CC(=O)C=C[C@]4(C)[C@@]3(F)[C@@H](O)C[C@@]21C [fluticasone propionate] |  | reduced symptoms
